Results on two compounds are retold here after publication PMC7529893, “Structural basis for substrate recognition and chemical inhibition of oncogenic MAGE ubiquitin ligases” (Nature Communications, 2020).

Usually IC50 stands for the concentration needed to halve the response being measured.

The target in this experiment is T1, MAGE-A11:PCF11 interaction (GST-MAGE-A11 MHD and FAM-PCF11_4) (Homo sapiens, UniProt P43364).
T1 construct: GST-MAGE-A11 MHD (human MAGE-A11 MHD amino acid 218-429); made in house; host or cells: E. coli BL21(DE3)
T1 sequence (P43364 218-429): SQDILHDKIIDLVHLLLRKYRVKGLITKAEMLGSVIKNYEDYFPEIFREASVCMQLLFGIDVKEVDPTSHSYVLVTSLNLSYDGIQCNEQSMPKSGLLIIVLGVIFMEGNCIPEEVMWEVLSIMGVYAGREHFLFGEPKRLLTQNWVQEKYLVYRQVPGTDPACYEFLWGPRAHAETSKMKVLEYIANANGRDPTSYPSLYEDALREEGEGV
Nature of the experiment: TR-FRET dose response test of compounds for disruption of MAGE-A11:PCF11 binding. The following applies: Fig. 5c, 5f, Supplementary Fig. 4e legend; read-out: IC50, TR-FRET competition, disruption of MAGE-A11:PCF11 binding. An outline of the steps:
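Competition of compounds against binding of FAM-PCF11_4 peptide to GST-MAGE-A11 MHD, detected with Tb-anti-GST, in 50 mM Tris pH 7.5, 20 mM MgCl2, 0.1 mg/ml BSA, 1 mM DTT. 90 min at ~25 °C; 520/490 nm emission ratio (340 nm excitation) fitted for IC50.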
Background: In TR-FRET formats the signal depends on donor and acceptor labels being close together.

Take `FC(F)(F)c1ccc2c(NCCCNCc3ccc4[nH]ccc4c3)ccnc2c1` [SJ000521054-02]: the IC50 is 400 nM.
With `c1ccc2c(NCCCNCc3ccc4[nH]ccc4c3)ccnc2c1` [SJ001008066-01] the figure was 130 nM.
